These results are taken from patent US11926576B1, “4,4′-naphthalene-1,5-diylbis(diazene-2,1-diyl)dibenzene-1,2-diol as an antioxidant compound” (KING FAISAL UNIVERSITY, priority 2023, dated 2024).

The assay can be described thus: DPPH radical scavenging antioxidant test. Conditions: 517 nm; for Inhibition (radical scavenging inhibition): compound 3 μM in ethanol, 0.2 mL DPPH (0.75 mM), 30 min incubation in the dark. Type of assay: biochemical. As for the experimental part:
The antioxidant properties of the 4,4′-naphthalene-1,5-diylbis(diazene-2,1-diyl)dibenzene-1,2-diol were studied by adding 0.2 mL DPPH (0.75 mM)) to compound 4,4′-naphthalene-1,5-diylbis(diazene-2,1-diyl)dibenzene-1,2-diol (III) (3 μM) in ethanol. After 30 min of incubation in the dark, the absorbance was read against a blank at 517 nm. Ascorbic acid (vitamin C) was used as standard antioxidants (positive control). A blank sample was prepared by 0.2 ml of DPPH in 3 ml ethanol. A negative control sample was run using ethanol instead of the sample. The radical scavenging inhibition was calculated using the following equation: […]
On the technique in general: DPPH is a stable violet radical that fades when it is reduced.

For the molecule `Oc1ccc(/N=N/c2cccc3c(/N=N/c4ccc(O)c(O)c4)cccc23)cc1O` [Product III, 4,4′-naphthalene-1,5-diylbis(diazene-2,1-diyl)dibenzene-1,2-diol], the “Inhibition (radical scavenging inhibition)” value was determined as 50%. In addition, the “antioxidant potential (DPPH) compared to vitamin C” value (DPPH in vitro test, vitamin C as positive control) is listed as “high potential as an antioxidant compared to vitamin C”.
`O=C1O[C@H]([C@@H](O)CO)C(O)=C1O` [vit c, Ascorbic acid, reference compound]: the “Inhibition (radical scavenging inhibition)” value worked out at 74%.
